Data reported in PMC10820479, “An Improved In Vitro Blood-Brain Barrier Model for the Evaluation of Drug Permeability Using Transwell with Shear Stress” (Pharmaceutics, 2023).
Structures can show the parent of a compound that is named as a salt. Where two headings read alike, the source gives them in different places.

Assays:
[1] = monkey; unbound plasma-CSF partition coefficient; cited from earlier work
[2] = Permeability test in the optimized annular shaking dish (AS) BBB model; conditions: human
Procedure: (§1) The culture inserts (Costar®, Washington, DC, USA, 6.5 mm diameter) of polycarbonate (PC) and polyester (PET) membrane were procured from Corning Inc. (Corning, NY, USA). […] After washing twice with PBS, the cells were seeded at a density of 1 × 10^5 hCMEC/D3 cells/well in the apical chamber and 3 × 10^4 U87MG cells/well on the basolateral side of the insert. The cultivation method was modified from that described in the literature. Briefly, the insert was inverted, and U87MG cells were initially seeded. The insert was flipped 3–4 h after seeding the U87MG cells. Subsequently, hCMEC/D3 cells were seeded 1 day later.
(§2) To prevent nonspecific binding, all compounds were pre-incubated for 30 min prior to the permeability study. The samples were collected at 0 min from the donor and at 30, 60, and 90 min from the acceptor and immediately replaced with a new transport buffer. Incubation was carried out in a humidified 5% CO2 environment at 37 °C with shaking at 100 rpm.
(§3) After culturing the cells in culture inserts, as described in Section 2.3, they were transferred to the AS prepared on day 3, and cultivation was carried out with orbital shaking at 150 rpm until day 17 (Figure 1b). The cultivated AS BBB model was employed to investigate the effects of the AS size, as well as the influence of FBS and ITS.
(§4) Chromatographic separations were performed on Agilent Poroshell 120 EC-C18 (3.0 × 50 mm, 2.7 µm; Agilent Technologies, Inc., Santa Clara, CA, USA) and YMC triart C18 (2.0 × 50 mm, 3 µm; YMC Co., Ltd., Kyoto, Japan) columns using 5 mM ammonium formate in water (pH 4) and methanol.
(§5) The optimized AS BBB model was evaluated as follows.

[3] = tested on: in vitro AS BBB model (hCMEC/D3 co-cultured with U87MG); test: as above; conditions: optimized AS BBB model
Procedure: as §1, §2, §3, §4, §5

[4] = tested on: hCMEC/D3 cell layer on transwell inserts; test: Lucifer yellow (LY) diffusion, cell layer integrity; conditions: AS BBB model (discussion)
[5] = rat; unbound plasma-CSF partition coefficient; cited from earlier work
P-gp = test: Efflux transporter inhibition assay, P-gp, AS BBB model; format: in vitro ADME; conditions: human, optimized AS BBB model
Procedure: A modified method from a previously published paper was used for the inhibition assay. […] The bidirectional permeability of substrates was evaluated by measuring changes in Papp and the efflux ratio for both the inhibitor- and vehicle-treated groups. The concentration of dantrolene was determined using liquid chromatography with tandem mass spectrometry (LC-MS/MS).

P-glycoprotein (P-gp) = test: Rhodamine 123 efflux (bidirectional permeability, P-gp activity); conditions: for efflux ratio: 10 μM; for efflux ratio at 90 min, 10 μM: human, not told
Procedure: Bidirectional permeability tests were performed at time points of 0, 30, 60, and 90 min with shaking at 100 rpm. Each sample was measured at 480 nm/530 nm (excitation/emission wavelengths) using the VICTOR® Nivo multimode plate reader. The apparent permeability coefficient (Papp) was determined using Equation (2):Papp (cm/s) = dQ/dt × 1/(A × C0)(2) where: • A is the surface area of the insert filter membrane (cm^2) • C0 is the initial concentration in the donor solution (μM) • dQ/dt is the amount of the drug transported within a given time period (pmol/s)

**Q.** Which results are given for `NC(=O)N1c2ccccc2C=Cc2ccccc21` [Carbamazepine, carbamazepine]?
**A.** Kp,uu,CSF [1]: 0.979 (monkey) ^3; Papp at 90 min, 20 μM [2]: 29 ± 4.4 ×10⁻⁶ cm/s; permeability (in words) [3]: high permeability

**Q.** Which Papp at 90 min, 20 μM [2] does the source give for `CC(C)NCC(O)COc1cccc2ccccc12` (stereo not shown) [Propranolol, propranolol HCl] here?
**A.** Its Papp at 90 min, 20 μM is 24.6 ± 4.5 ×10⁻⁶ cm/s.

**Q.** For lucifer yellow CH dipotassium salt [LY], which “transport of LY through the paracellular pathway” value [4] is on record?
**A.** The value was “less than 1%”.

**Q.** Which “Kp,uu,CSF” value [5] does the source give for `Cc1ncc2n1-c1ccc(Cl)cc1C(c1ccccc1F)=NC2` [Midazolam] here?
**A.** The value was 1.35 (rat) ^2.

**Q.** And the Papp [2]?
**A.** The Papp was 41.5 ± 2.8 ×10⁻⁶ cm/s.

**Q.** For `COC(=O)c1ccccc1-c1c2ccc(=N)cc-2oc2cc(N)ccc12` [Rhodamine123, rhodamine 123], which efflux ratio at 10 μM (P-gp; with cyclosporin A 10 μM, with P-gp inhibitor cyclosporin A 10 μM) is on record?
**A.** Its efflux ratio at 10 μM is 1.6 ± 0.13.

**Q.** What about the efflux ratio at 10 μM (P-gp; without inhibitor, 10 μM) of the same compound?
**A.** The efflux ratio at 10 μM was 4.2 ± 0.15.

**Q.** And the efflux ratio (P-glycoprotein (P-gp); 15 cm AS group)?
**A.** Its efflux ratio is “exceeding two”.

**Q.** What about the efflux ratio (P-glycoprotein (P-gp); 15 cm AS, 5% FBS + ITS) of the same compound?
**A.** The efflux ratio was 4.04 ± 0.04.

**Q.** What about the efflux ratio at 90 min, 10 μM (P-glycoprotein (P-gp); 15 cm AS, 2% FBS + ITS) of the same compound?
**A.** Its efflux ratio at 90 min, 10 μM is 6.73 ± 0.94.

**Q.** What about the efflux ratio at 90 min, 10 μM (P-glycoprotein (P-gp); 15 cm AS, 5% FBS) of the same compound?
**A.** The efflux ratio at 90 min, 10 μM was 2.4 ± 0.05.

**Q.** What about the efflux ratio at 90 min, 10 μM (P-glycoprotein (P-gp); 15 cm AS, 5% FBS + ITS) of the same compound?
**A.** Its efflux ratio at 90 min, 10 μM is 4 ± 0.04.

**Q.** What about the Papp at 90 min, 20 μM [2] of the same compound?
**A.** Its Papp at 90 min, 20 μM is 0.67 ± 0.14 ×10⁻⁶ cm/s.

**Q.** What about the “permeability (in words)” value [3] of the same compound?
**A.** Its value is “low”.

**Q.** With `CCN1CCCC1CNC(=O)c1cc(S(N)(=O)=O)ccc1OC` (stereo not shown) [Sulpiride, sulpiride] as the compound, how does the “Kp,uu,CSF” value [5] read?
**A.** The value was 0.049 (rat) ^2.

**Q.** What about the Papp at 90 min, 20 μM [2] of the same compound?
**A.** The Papp at 90 min, 20 μM was 10.2 ± 0.82 ×10⁻⁶ cm/s.

**Q.** Which Papp at 90 min, 20 μM [2] does the source give for `O=C1NC(=O)C(c2ccccc2)(c2ccccc2)N1` [Phenytoin, phenytoin sodium] here?
**A.** The Papp at 90 min, 20 μM was 21.8 ± 1.2 ×10⁻⁶ cm/s.
